{"source": "patent US8686224B2", "about": "“Plant defense signal peptides” (priority 2005, dated 2014)", "key": {"[1]": {"biological_target": "T1, 180 kD AtPep1-binding protein (AtPep1 receptor, At1g73080) (Arabidopsis thaliana, UniProt Q9SSL9)", "T1 construct": "endogenous in cells", "T1 sequence (Q9SSL9 29-1123)": "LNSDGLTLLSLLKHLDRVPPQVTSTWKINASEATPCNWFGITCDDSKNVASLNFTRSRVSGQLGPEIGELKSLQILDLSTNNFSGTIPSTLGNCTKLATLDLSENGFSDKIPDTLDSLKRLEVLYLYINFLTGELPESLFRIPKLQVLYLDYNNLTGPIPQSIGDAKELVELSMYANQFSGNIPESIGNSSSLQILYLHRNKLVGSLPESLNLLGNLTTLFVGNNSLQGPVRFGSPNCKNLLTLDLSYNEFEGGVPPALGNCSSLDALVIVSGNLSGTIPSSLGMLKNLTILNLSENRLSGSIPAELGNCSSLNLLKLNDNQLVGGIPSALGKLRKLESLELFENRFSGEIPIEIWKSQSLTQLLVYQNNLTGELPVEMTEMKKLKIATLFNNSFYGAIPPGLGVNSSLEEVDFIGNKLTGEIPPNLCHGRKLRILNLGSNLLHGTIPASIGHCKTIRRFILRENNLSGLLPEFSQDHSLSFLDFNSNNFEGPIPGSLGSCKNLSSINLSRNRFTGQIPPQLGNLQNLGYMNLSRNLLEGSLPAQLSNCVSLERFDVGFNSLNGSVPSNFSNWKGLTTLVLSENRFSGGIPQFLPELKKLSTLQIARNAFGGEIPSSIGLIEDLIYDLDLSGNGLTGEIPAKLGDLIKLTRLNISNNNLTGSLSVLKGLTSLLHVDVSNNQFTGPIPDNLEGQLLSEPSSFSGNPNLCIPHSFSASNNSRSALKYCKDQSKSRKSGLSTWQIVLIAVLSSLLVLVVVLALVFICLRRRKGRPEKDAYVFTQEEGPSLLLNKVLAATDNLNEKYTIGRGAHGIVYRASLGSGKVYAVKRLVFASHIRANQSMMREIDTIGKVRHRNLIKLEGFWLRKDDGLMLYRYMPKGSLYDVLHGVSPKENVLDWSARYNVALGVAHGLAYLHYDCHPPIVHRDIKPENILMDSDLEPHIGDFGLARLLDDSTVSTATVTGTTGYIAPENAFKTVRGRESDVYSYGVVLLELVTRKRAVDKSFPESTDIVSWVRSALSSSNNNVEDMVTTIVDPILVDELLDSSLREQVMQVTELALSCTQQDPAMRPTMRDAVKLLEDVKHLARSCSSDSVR", "assay": "Photoaffinity labeling with 125I-azido-Cys-AtPep1, competition", "details": "microsomal membranes of wild type and control SALK plants, preincubated with 2.5 nM AtPep1", "procedure": "Photoaffinity labeling. To 1 mL of cultured cells in darkness was added ^125I-azido-Cys-AtPep1 (0.25 nM final concentration as described above) and the cells were shaken for 10 min on an orbital shaker (160 rpm) at room temperature. The cells were transferred to a 1.5 mL glass tube, centrifuged at 10,000×g and the sedimented cells were dispersed in 1 mL cold MS medium containing 3% sucrose and centrifuged as above. This wash was repeated twice. The cells were resuspended in 1 mL MS medium and irradiated with UV-B for 10 min on ice to photoactivate the azido group to effect the crosslinking. The cells were washed with 1 mL MS medium, centrifuged as above, and resuspended in 400 μL of 5% SDS. The cells were disrupted by boiling for 30 min, and the insoluble debris was removed by centrifugation at 10,000×g. Proteins in the clear supernatant were precipitated by adding 1.25 volumes of methanol/chloroform (vol/vol). […]\nMicrosomal fractions were prepared from one-month-old plants by differential centrifugation as previously described (Scheer and Ryan, Proc. Natl. Acad. Sci. 99:9585-9590, 2002). […] The membranes were incubated for 60 min at approximately 4° C., irradiated with UV-B for 15 min, separated by SDS-PAGE, dried and analyzed by radioautography to identify labeled proteins."}, "[2]": {"system": "PDF1.2 and PR-1 gene expression", "assay": "Spraying of four-week-old soil-grown plants, qRT-PCR of PDF1.2 and PR-1", "assay_type": "in vivo, Arabidopsis thaliana", "text": "[…]1 and […]2 mutants are unable to respond to AtPEP1. To further examine the importance of […]1 and […]2 in AtPep1 signaling, the expression level of WRKY transcription factor genes, WRKY22, WRKY29, WRKY33. WRKY53 and WRKY55, were monitored by qRT-PCR after supplying AtPep1 to wild type Arabidopsis and T-DNA insertional mutants of […]1 and […]2. These WRKY genes were reported to be induced by the fungal PAMP, chitin (Wan et al., Plant Cell 20: 471-481, 2008), and the bacterial PAMPs, […] et al., Cell 125:749-760, 2006). […] In the double mutants, […] […] We also examined the effect of supplying AtPep1 to the double mutants on the expression of the antimicrobial protein genes, defensin (PDF1.2) and pathogenesis related protein (PR-1) […] peptides are known to induced these genes (Huffaker and Ryan, Proc. Natl. Acad. Sci. USA 104: 10732-10736, 2007). Since the expression levels of PDF1.2 and PR-1 gene in Arabidopsis seedlings grown in liquid medium were already high, the method of supplying AtPep1 was changed. Four-week-old Arabidopsis plants grown in soil were sprayed with 1 μM AtPep1 in 0.01% Silwet L-77, and subjected to qRT-PCR analysis after 6 hours."}, "[3]": {"details": "sprayed 1 μM in 0.01% Silwet L-77, 6 hours, wild type"}}, "data": [{"substance": "H-ATKVKAKQRGKEKVSSGRPGQHN-OH [AtPep1]", "values": [{"measurement": "photoaffinity labeled proteins after preincubation", "setting": "[1]", "result": "absent"}, {"measurement": "induction of PDF1.2", "setting": "[2]; [3]", "result": 30, "unit": "fold"}, {"measurement": "induction of PR-1", "setting": "[2]; [3]", "result": 60, "unit": "fold"}, {"measurement": "induction of PDF1.2 and PR-1 in the double mutants", "setting": "[2]; sprayed 1 μM, 6 hours", "result": "not induced"}]}]}
